Target: Pseudomonas aeruginosa LpxC enzyme (Pseudomonas aeruginosa (strain ATCC 15692 / DSM 22644 / CIP 104116 / JCM 14847 / LMG 12228 / 1C / PRS 101 / PAO1), UniProt P47205)
Test: biochemical
Assay type: biochemical
Settings: inhibitory activity on Pseudomonas aeruginosa LpxC enzyme, class symbols A/B/C; read-out: Enzyme inhibitory activity

SMILES | IC50
CNC(=O)C(C(=O)NO)N(C)C(=O)c1ccc(-c2ccc(NC)cc2)c(NC)c1 (stereo not drawn) [Compound 101, 2-[{[2,4′-bis(methylamino)biphenyl-4-yl]carbonyl}(methyl)amino]-N-hydroxy-N′-methylpropanediamide] | > 100 nM
CNC(=O)C(C(=O)NO)N(C)C(=O)c1ccc(-c2ccc(OCC3(CN4CCOCC4)CC3)cc2)cc1 (stereo not drawn) [Compound 102, N-hydroxy-N′-methyl-2-{methyl[(4′-{[1-(morpholin-4-ylmethyl)cyclopropyl]methoxy}biphenyl-4-yl)carbonyl]amino}propanediamide] | 10 to 100 nM
CNC(=O)C(C(=O)NO)N(C)C(=O)c1ccc(-c2ccc(NCC3CC3CNc3ccccc3)cc2)cc1 (stereo not drawn) [Compound 103, N-hydroxy-N′-methyl-2-[methyl({4′-[({2-[(phenylamino)methyl]cyclopropyl}methyl)amino]biphenyl-4-yl}carbonyl)amino]propanediamide] | < 10 nM
CNC(=O)C(C(=O)NO)N(C)C(=O)c1ccc(-c2ccoc2)cc1 (stereo not drawn) [Compound 105, 2-{[4-(furan-3-yl)benzoyl](methyl)amino}-N-hydroxy-N′-methylpropanediamide] | > 100 nM
CNC(=O)C(C(=O)NO)N(C)C(=O)c1ccc(-c2ccc(OCCCN(C)Cc3ccccc3)cc2NC)cc1 (stereo not drawn) [Compound 106, 2-[{[4′-{3-[benzyl(methyl)amino]propoxy}-2′-(methylamino)biphenyl-4-yl]carbonyl}(methyl)amino]-N-hydroxy-N′-methylpropanediamide] | 10 to 100 nM
CNC(=O)C(C(=O)NO)N(C)C(=O)c1ccc(-c2ncccc2F)cc1 (stereo not drawn) [Compound 107, 2-{[4-(3-fluoropyridin-2-yl)benzoyl](methyl)amino}-N-hydroxy-N′-methylpropanediamide] | > 100 nM
CNC(=O)C(C(=O)NO)N(C)C(=O)c1ccc(-c2ccc(F)cn2)cc1 (stereo not drawn) [Compound 108, 2-{[4-(5-fluoropyridin-2-yl)benzoyl](methyl)amino}-N-hydroxy-N′-methylpropanediamide] | > 100 nM
O=C(NC(C(=O)NO)C(=O)NO)c1ccc(-c2ccccc2)cc1 [Compound 109, 2-[(biphenyl-4-ylcarbonyl)amino]-N,N′-dihydroxypropanediamide] | 10 to 100 nM
CNC(=O)C(NC(=O)c1ccc(-c2ccccc2)cc1)C(=O)NO (stereo not drawn) [Compound 110, 2-[(biphenyl-4-ylcarbonyl)amino]-N-hydroxy-N′-methylpropanediamide] | 10 to 100 nM
NC(=O)C(NC(=O)c1ccc(-c2ccccc2)cc1)C(=O)NO (stereo not drawn) [Compound 111, 2-[(biphenyl-4-ylcarbonyl)amino]-N-hydroxypropanediamide] | 10 to 100 nM
CNC(=O)C(NC(=O)c1ccc(-c2ccc(OCCCN3CCCOCC3)cc2)cc1)C(=O)NO (stereo not drawn) [Compound 112, N-hydroxy-N′-methyl-2-[({4′-[3-(1,4-oxazepan-4-yl)propoxy]biphenyl-4-yl}carbonyl)amino]propanediamide] | < 10 nM
CNC(=O)C(NC(=O)c1ccc(-c2ccc(OCCO)cc2)cc1)C(=O)NO (stereo not drawn) [Compound 113, N-hydroxy-2-({[4′-(2-hydroxyethoxy)biphenyl-4-yl]carbonyl}amino)-N′-methylpropanediamide] | < 10 nM
CNC(=O)C(NC(=O)c1ccc(-c2ccc(NCCO)cc2)cc1)C(=O)NO (stereo not drawn) [Compound 114, N-hydroxy-2-[({4′-[(2-hydroxyethyl)amino]biphenyl-4-yl}carbonyl)amino]-N′-methylpropanediamide] | 10 to 100 nM
CNC(=O)C(NC(=O)c1ccc(C#Cc2ccc(NCCO)cc2)cc1)C(=O)NO (stereo not drawn) [Compound 115, N-hydroxy-2-{[4-({4-[(2-hydroxyethyl)amino]phenyl}ethynyl)benzoyl]amino}-N′-methylpropanediamide] | < 10 nM
O=C(NC(C(=O)NO)C(=O)Nc1cccnc1)c1ccc(-c2ccc(OCCO)cc2)cc1 (stereo not drawn) [Compound 116, N-hydroxy-2-({[4′-(2-hydroxyethoxy)biphenyl-4-yl]carbonyl}amino)-N′-(pyridin-3-yl)propanediamide] | 10 to 100 nM
CNC(=O)C(NC(=O)c1ccc(C#Cc2ccc(CN3CCCOCC3)cc2)cc1)C(=O)NO (stereo not drawn) [Compound 117, N-hydroxy-N′-methyl-2-[(4-{[4-(1,4-oxazepan-4-ylmethyl)phenyl]ethynyl}benzoyl)amino]propanediamide] | < 10 nM
CN(C)C(=O)C(NC(=O)c1ccc(-c2ccc(OCCO)cc2)cc1)C(=O)NO (stereo not drawn) [Compound 118, N′-hydroxy-2-({[4′-(2-hydroxyethoxy)biphenyl-4-yl]carbonyl}amino)-N,N-dimethylpropanediamide] | > 100 nM
CC(C)(C)NC(=O)C(NC(=O)c1ccc(-c2ccc(OCCO)cc2)cc1)C(=O)NO (stereo not drawn) [Compound 119, N-tert-butyl-N′-hydroxy-2-({[4′-(2-hydroxyethoxy)biphenyl-4-yl]carbonyl}amino)propanediamide] | > 100 nM

SMILES | IC50
O=C(NC(C(=O)NO)C(=O)NCc1ccccc1)c1ccc(-c2ccc(OCCO)cc2)cc1 (stereo not drawn) [Compound 120, N-benzyl-N′-hydroxy-2-({[4′-(2-hydroxyethoxy)biphenyl-4-yl]carbonyl}amino)propanediamide] | < 10 nM
O=C(NC(C(=O)NO)C(=O)NC1CC1)c1ccc(-c2ccc(OCCO)cc2)cc1 (stereo not drawn) [Compound 121, N-cyclopropyl-N′-hydroxy-2-({[4′-(2-hydroxyethoxy)biphenyl-4-yl]carbonyl}amino)propanediamide] | 10 to 100 nM
O=C(NC(C(=O)NO)C(=O)NCCO)c1ccc(-c2ccc(OCCO)cc2)cc1 (stereo not drawn) [Compound 122, N-hydroxy-2-({[4′-(2-hydroxyethoxy)biphenyl-4-yl]carbonyl}amino)-N′-(2-hydroxyethyl)propanediamide] | 10 to 100 nM
CN(C)CCNC(=O)C(NC(=O)c1ccc(-c2ccc(OCCO)cc2)cc1)C(=O)NO (stereo not drawn) [Compound 123, N-[2-(dimethylamino)ethyl]-N′-hydroxy-2-({[4′-(2-hydroxyethoxy)biphenyl-4-yl]carbonyl}amino)propanediamide] | > 100 nM
O=C(NC(C(=O)NO)C(=O)NCc1ccncc1)c1ccc(-c2ccc(OCCO)cc2)cc1 (stereo not drawn) [Compound 124, N-hydroxy-2-({[4′-(2-hydroxyethoxy)biphenyl-4-yl]carbonyl}amino)-N′-(pyridin-4-ylmethyl)propanediamide] | < 10 nM
O=C(NC(C(=O)NO)C(=O)NCCc1ccccc1)c1ccc(-c2ccc(OCCO)cc2)cc1 (stereo not drawn) [Compound 125, N-hydroxy-2-({[4′-(2-hydroxyethoxy)biphenyl-4-yl]carbonyl}amino)-N′-(2-phenylethyl)propanediamide] | 10 to 100 nM
O=C(NC(C(=O)NO)C(=O)NCCCc1ccccc1)c1ccc(-c2ccc(OCCO)cc2)cc1 (stereo not drawn) [Compound 126, N-hydroxy-2-({[4′-(2-hydroxyethoxy)biphenyl-4-yl]carbonyl}amino)-N′-(3-phenylpropyl)propanediamide] | < 10 nM
CNC(=O)C(C(=O)NO)N(C(=O)c1ccc(-c2ccccc2)cc1)C1CC1 (stereo not drawn) [Compound 127, 2-[(Biphenyl-4-ylcarbonyl)(cyclopropyl)amino]-N-hydroxy-N′-methylpropanediamide] | < 10 nM
O=C(NC(C(=O)NO)C(=O)NCC1CCC1)c1ccc(-c2ccc(OCCO)cc2)cc1 (stereo not drawn) [Compound 128, N-(cyclobutylmethyl)-N′-hydroxy-2-({[4′-(2-hydroxyethoxy)biphenyl-4-yl]carbonyl}amino)propanediamide] | < 10 nM
O=C(NC(C(=O)NO)C(=O)NCc1cccnc1)c1ccc(-c2ccc(OCCO)cc2)cc1 (stereo not drawn) [Compound 129, N-hydroxy-2-({[4′-(2-hydroxyethoxy)biphenyl-4-yl]carbonyl}amino)-N′-(pyridin-3-ylmethyl)propanediamide] | < 10 nM
O=C(NC(C(=O)NO)C(=O)NCc1ccccn1)c1ccc(-c2ccc(OCCO)cc2)cc1 (stereo not drawn) [Compound 130, N-hydroxy-2-({[4′-(2-hydroxyethoxy)biphenyl-4-yl]carbonyl}amino)-N′-(pyridin-2-ylmethyl)propanediamide] | < 10 nM
COCCNC(=O)C(NC(=O)c1ccc(-c2ccc(OCCO)cc2)cc1)C(=O)NO (stereo not drawn) [Compound 131, N-hydroxy-2-({[4′-(2-hydroxyethoxy)biphenyl-4-yl]carbonyl}amino)-N′-(2-methoxyethyl)propanediamide] | 10 to 100 nM
CSCCNC(=O)C(NC(=O)c1ccc(-c2ccc(OCCO)cc2)cc1)C(=O)NO (stereo not drawn) [Compound 132, N-hydroxy-2-({[4′-(2-hydroxyethoxy)biphenyl-4-yl]carbonyl}amino)-N′-[2-(methylsulfanyl)ethyl]propanediamide] | < 10 nM
Cc1cc(CNC(=O)C(NC(=O)c2ccc(-c3ccc(OCCO)cc3)cc2)C(=O)NO)no1 (stereo not drawn) [Compound 133, N-hydroxy-2-({[4′-(2-hydroxyethoxy)biphenyl-4-yl]carbonyl}amino)-N′-[(5-methyl-1,2-oxazol-3-yl)methyl]propanediamide] | < 10 nM
O=C(NC(C(=O)NO)C(=O)NCC1CCCO1)c1ccc(-c2ccc(OCCO)cc2)cc1 (stereo not drawn) [Compound 134, N-hydroxy-2-({[4′-(2-hydroxyethoxy)biphenyl-4-yl]carbonyl}amino)-N′-(tetrahydrofuran-2-ylmethyl)propanediamide] | < 10 nM
CC(=O)NCCNC(=O)C(NC(=O)c1ccc(-c2ccc(OCCO)cc2)cc1)C(=O)NO (stereo not drawn) [Compound 135, N-[2-(acetylamino)ethyl]-N′-hydroxy-2-({[4′-(2-hydroxyethoxy)biphenyl-4-yl]carbonyl}amino)propanediamide] | < 10 nM
CC(C)(C)CNC(=O)C(NC(=O)c1ccc(-c2ccc(OCCO)cc2)cc1)C(=O)NO (stereo not drawn) [Compound 136, N-(2,2-dimethylpropyl)-N′-hydroxy-2-({[4′-(2-hydroxyethoxy)biphenyl-4-yl]carbonyl}amino)propanediamide] | 10 to 100 nM
O=C(NC(C(=O)NO)C(=O)NCC(F)F)c1ccc(-c2ccc(OCCO)cc2)cc1 (stereo not drawn) [Compound 137, N-(2,2-difluoroethyl)-N′-hydroxy-2-({[4′-(2-hydroxyethoxy)biphenyl-4-yl]carbonyl}amino)propanediamide] | 10 to 100 nM

From patent US9073821B2, “Hydroxamic acid derivative” (priority 2010, dated 2015)
